{"source": "patent US9605064B2", "about": "“Methods and compositions for treatment of skin disorders” (AbbVie Biotechnology Ltd, priority 2006, dated 2017)", "key": {"[1]": {"test_system": "patients with moderate to severe chronic plaque psoriasis", "details": "in vivo"}, "[2]": {"test_system": "patients with moderate to severe chronic plaque psoriasis", "assay": "Physician's Global Assessment (PGA), Phase II trial with 48-week extension", "format": "in vivo, human", "details": "for Percentage of Patients Achieving PGA “Clear” or “Almost Clear”: modified ITT, NRI; for PGA “Clear”/“Almost Clear”: after 60 weeks of 40 mg eow", "from_the_text": "Efficacy outcome measures included PASI and PGA.\nThe Physician's Global Assessment (PGA), which was used as a clinical endpoint in the trial, was used to determine the MCID for DLQI. The PGA is a seven point scale used to measure disease severity from a physician's evaluation. Scoring under the PGA ranges from 1 (Clear) to 7 (Severe). Categories for the 7-point scale include the following: • Severe: very marked plaque elevation, scaling and/or erythema; • Moderate to severe: marked plaque elevation, scaling and/or erythema; • Moderate: moderate plaque elevation, scaling and/or erythema; • Mild to moderate: intermediate between moderate and mild; • Mild: slight plaque elevation, scaling and/or erythema; • Almost clear: intermediate between mild and clear; and • Clear: no signs of psoriasis (post-inflammatory hypopigmentation or hyperpigmentation could be present). Scoring regions were from 1 (clear) to 7 (severe). PGA was assessed at screening; baseline; week 1; week 2; week 4; week 8; and week 12/early termination; and follow up. The same investigator performed the assessment for each patient throughout the study. Statistical methods were performed according to the following summary. Analyses were performed on blinded data, combining results from all three groups. Changes in the PGA from baseline to week 12 were correlated with changes in DLQI total score.\nThe PGA is a seven-point scale used to measure the severity of disease at the time of the physician's evaluation. The seven disease categories are: • Severe: very marked plaque elevation, scaling, and/or erythema • Moderate to Severe: marked plaque elevation, scaling, and/or erythema • Moderate: moderate plaque elevation, scaling, and/or erythema • Mild to moderate: intermediate between moderate and mild • Mild: slight plaque elevation, scaling, and/or erythema • Almost Clear: intermediate between mild and clear • Clear: no signs of psoriasis (post-inflammatory hypopigmentation or hyperpigmentation could be present).\nThe PGA scale is scored from 1 (Clear) to 7 (Severe). The PGA was assessed by the investigator at screening, baseline, and Weeks 1, 2, 4, 8, 12/Early Termination, and the follow-up visit. Each study site was to make every attempt to have the same investigator perform these assessments throughout the study for each patient.\nThe PGA is a 7-point scale used to measure disease severity from a physician's evaluation. The categories for the 7-point scale include: Severe: very marked plaque elevation, scaling, and/or erythema; Moderate to severe: marked plaque elevation, scaling, and/or erythema; Moderate: moderate plaque elevation, scaling, and/or erythema; Mild to moderate: intermediate between moderate and mild; Mild: slight plaque elevation, scaling, and/or erythema; Almost clear: intermediate between mild and clear; and Clear: no signs of psoriasis (post-inflammatory hypopigmentation or hyperpigmentation could be present). The scoring ranges are from 1 (Clear) to 7 (Severe). PGA was assessed at screening, baseline, Week 1, Week 2, Week 4, Week 8, Week 12/early termination, and follow-up. The same investigator performed this assessment for each patient throughout the study."}, "[3]": {"test_system": "patients with moderate to severe psoriasis", "details": "in vivo", "procedure": "Laboratory parameters and adverse events were also recorded."}, "[4]": {"test_system": "patients with moderate to severe chronic plaque psoriasis", "assay": "PASI response and PGA, 120-week open-label extension study", "format": "in vivo, human", "details": "40 mg eow, as observed", "from_the_text": "Exclusion criteria included prior TNF-antagonist therapy."}, "[5]": {"assay": "Adalimumab serum concentrations by ELISA, Phase II trial", "format": "in vivo, human", "details": "for steady-state concentration: 40 mg eow dosing; for mean adalimumab serum concentration: 80 mg at Week 0 and 40 mg at Week 1"}, "[6]": {"test_system": "patients with severe psoriasis who were non-responders to high-dosage etanercept", "assay": "ESR and CRP, open-label adalimumab in non-responders to high-dosage etanercept", "format": "in vivo, human", "details": "Week 12; individual patients 1-5 (c1-c5); weekly adalimumab", "from_the_text": "This was an open-label prospective evaluation of adalimumab (HUMIRA®, Abbott Laboratories, Abbott Park, Ill., USA). Patients who were non-responders to etanercept were recruited from the Severe Psoriasis Clinic at St John's Institute of Dermatology in London. […] Inclusion criteria included male and female patients more than 18 years of age with plaque psoriasis (Table 98). The study was approved by St Thomas' Research Ethics Committee, and informed consent was obtained from all participants."}}, "note": "“And” between values parts separate entries of the source, which are not always exact repeats. Equal values may be shown once. Marks after values point to notes of the source that are not given here.", "data": [{"substance": "Adalimumab: a human anti-TNF mAb, described in U.S. Pat. No. 6,090,382 as D2E7 (HUMIRA, Abbott Laboratories)", "values": [{"measurement": "serious infections", "setting": "[1]", "value": "no patients experienced serious infections"}, {"measurement": "Percentages of Patients with PGA “Clear” or “Almost Clear”", "setting": "[2]; Week 12, 40 mg eow (Table 78)", "value": 51, "unit": "%"}, {"measurement": "Percentages of Patients with PGA “Clear” or “Almost Clear”", "setting": "[2]; Week 12, 40 mg weekly (Table 78)", "value": 81, "unit": "%"}, {"measurement": "Percentage of Patients Achieving PGA “Clear” or “Almost Clear”", "setting": "[2]; Week 12, adalimumab 40 mg eow", "value": "49* %"}, {"measurement": "Percentage of Patients Achieving PGA “Clear” or “Almost Clear”", "setting": "[2]; Week 12, adalimumab 40 mg weekly", "value": "76* %"}, {"measurement": "Percentage of Patients Achieving PGA “Clear” or “Almost Clear”", "setting": "[2]; Week 24, adalimumab 40 mg eow", "value": 64, "unit": "%"}, {"measurement": "Percentage of Patients Achieving PGA “Clear” or “Almost Clear”", "setting": "[2]; Week 24, adalimumab 40 mg weekly", "value": 72, "unit": "%"}, {"measurement": "Percentage of Patients Achieving PGA “Clear” or “Almost Clear”", "setting": "[2]; Week 24, placebo/adalimumab 40 mg eow (adalimumab from Week 12)", "value": 45, "unit": "%"}, {"measurement": "Percentage of Patients Achieving PGA “Clear” or “Almost Clear”", "setting": "[2]; Week 36, adalimumab 40 mg eow", "value": 60, "unit": "%"}, {"measurement": "Percentage of Patients Achieving PGA “Clear” or “Almost Clear”", "setting": "[2]; Week 36, adalimumab 40 mg weekly", "value": 68, "unit": "%"}, {"measurement": "Percentage of Patients Achieving PGA “Clear” or “Almost Clear”", "setting": "[2]; Week 36, placebo/adalimumab 40 mg eow (adalimumab from Week 12)", "value": 51, "unit": "%"}, {"measurement": "Percentage of Patients Achieving PGA “Clear” or “Almost Clear”", "setting": "[2]; Week 60, adalimumab 40 mg eow", "value": 44, "unit": "%"}, {"measurement": "Percentage of Patients Achieving PGA “Clear” or “Almost Clear”", "setting": "[2]; Week 60, adalimumab 40 mg weekly", "value": 52, "unit": "%"}, {"measurement": "Percentage of Patients Achieving PGA “Clear” or “Almost Clear”", "setting": "[2]; Week 60, placebo/adalimumab 40 mg eow (adalimumab from Week 12)", "value": 45, "unit": "%"}, {"measurement": "PGA “Clear” or “Almost Clear”", "setting": "[2]; baseline PASI ≧10 and DLQI >10, 40 mg eow, Week 12", "value": "62 % of Patients"}, {"measurement": "PGA “Clear” or “Almost Clear”", "setting": "[2]; baseline PASI ≧10 and DLQI >10, 40 mg eow, Week 24", "value": "69 % of Patients"}, {"measurement": "PGA “Clear” or “Almost Clear”", "setting": "[2]; baseline PASI ≧10 and DLQI >10, 40 mg eow, Week 36", "value": "65 % of Patients"}, {"measurement": "PGA “Clear” or “Almost Clear”", "setting": "[2]; baseline PASI ≧10 and DLQI >10, 40 mg eow, Week 60", "value": "54 % of Patients"}, {"measurement": "PGA “Clear” or “Almost Clear”", "setting": "[2]; baseline PASI ≧10 and DLQI >10, 40 mg weekly, Week 12", "value": "70 % of Patients"}, {"measurement": "PGA “Clear” or “Almost Clear”", "setting": "[2]; baseline PASI ≧10 and DLQI >10, 40 mg weekly, Week 24", "value": "74 % of Patients"}, {"measurement": "PGA “Clear” or “Almost Clear”", "setting": "[2]; baseline PASI ≧10 and DLQI >10, 40 mg weekly, Week 36", "value": "65 % of Patients"}, {"measurement": "PGA “Clear” or “Almost Clear”", "setting": "[2]; baseline PASI ≧10 and DLQI >10, 40 mg weekly, Week 60", "value": "52 % of Patients"}, {"measurement": "PGA “Clear” or “Almost Clear”", "setting": "[2]; baseline PASI ≧10 and DLQI >10, placebo/adalimumab 40 mg eow, Week 24", "value": "33 % of Patients"}, {"measurement": "PGA “Clear” or “Almost Clear”", "setting": "[2]; baseline PASI ≧10 and DLQI >10, placebo/adalimumab 40 mg eow, Week 36", "value": "44 % of Patients"}, {"measurement": "PGA “Clear” or “Almost Clear”", "setting": "[2]; baseline PASI ≧10 and DLQI >10, placebo/adalimumab 40 mg eow, Week 60", "value": "39 % of Patients"}, {"measurement": "PGA “Clear” or “Almost Clear”", "setting": "[2]; dosage escalation group (eow to 40 mg weekly, n = 30), Week 60", "value": 20, "unit": "%"}, {"measurement": "PGA “Clear”/“Almost Clear”", "setting": "[2]; no prior use", "value": 44, "unit": "%"}, {"measurement": "PGA “Clear”/“Almost Clear”", "setting": "[2]; prior biologic use", "value": 38, "unit": "%"}, {"measurement": "PGA “Clear”/“Almost Clear”", "setting": "[2]; prior systemic use", "value": 47, "unit": "%"}, {"measurement": "Infectious AEs, Patients (%)", "setting": "[3]", "value": 18, "unit": "%"}, {"measurement": "Serious infectious AE, Patients (%)", "setting": "[3]", "value": 1, "unit": "%"}, {"measurement": "patients with serious infections", "setting": "[3]", "value": 0.9, "unit": "%"}, {"measurement": "PASI 50 response, % Patients", "setting": "[4]; Week 12", "value": 78.7, "unit": "%"}, {"measurement": "PASI 75 response, % Patients", "setting": "[4]; Week 12", "value": 56.2, "unit": "%"}, {"measurement": "PASI 90 response, % Patients", "setting": "[4]; Week 12", "value": 29.2, "unit": "%"}, {"measurement": "PASI 100 response, % Patients", "setting": "[4]; Week 12", "value": 11.2, "unit": "%"}, {"measurement": "PASI 50 response, % Patients", "setting": "[4]; Week 24", "value": 86.7, "unit": "%"}, {"measurement": "PASI 75 response, % Patients", "setting": "[4]; Week 24", "value": 74.7, "unit": "%"}, {"measurement": "PASI 90 response, % Patients", "setting": "[4]; Week 24", "value": 52, "unit": "%"}, {"measurement": "PASI 100 response, % Patients", "setting": "[4]; Week 24", "value": 20, "unit": "%"}, {"measurement": "PASI 50 response, % Patients", "setting": "[4]; Week 48", "value": 96.7, "unit": "%"}, {"measurement": "PASI 75 response, % Patients", "setting": "[4]; Week 48", "value": 81.7, "unit": "%"}, {"measurement": "PASI 90 response, % Patients", "setting": "[4]; Week 48", "value": 61.7, "unit": "%"}, {"measurement": "PASI 100 response, % Patients", "setting": "[4]; Week 48", "value": 31.7, "unit": "%"}, {"measurement": "PASI 50 response, % Patients", "setting": "[4]; Week 72", "value": 96.2, "unit": "%"}, {"measurement": "PASI 75 response, % Patients", "setting": "[4]; Week 72", "value": 73.1, "unit": "%"}, {"measurement": "PASI 90 response, % Patients", "setting": "[4]; Week 72", "value": 53.8, "unit": "%"}, {"measurement": "PASI 100 response, % Patients", "setting": "[4]; Week 72", "value": 25, "unit": "%"}, {"measurement": "PASI 50 response, % Patients", "setting": "[4]; Week 96", "value": 92.5, "unit": "%"}, {"measurement": "PASI 75 response, % Patients", "setting": "[4]; Week 96", "value": 75.5, "unit": "%"}, {"measurement": "PASI 90 response, % Patients", "setting": "[4]; Week 96", "value": 52.8, "unit": "%"}, {"measurement": "PASI 100 response, % Patients", "setting": "[4]; Week 96", "value": 24.5, "unit": "%"}, {"measurement": "PASI 50 response, % Patients", "setting": "[4]; Week 120", "value": 93.9, "unit": "%"}, {"measurement": "PASI 75 response, % Patients", "setting": "[4]; Week 120", "value": 77.6, "unit": "%"}, {"measurement": "PASI 90 response, % Patients", "setting": "[4]; Week 120", "value": 53.1, "unit": "%"}, {"measurement": "PASI 100 response, % Patients", "setting": "[4]; Week 120", "value": 28.6, "unit": "%"}, {"measurement": "steady-state concentration", "setting": "[5]; Week 11", "value": 6.0, "unit": "µg/mL"}, {"measurement": "steady-state concentration", "setting": "[5]; Week 12", "value": 6.9, "unit": "µg/mL"}, {"measurement": "mean adalimumab serum concentration", "setting": "[5]; Week 1", "value": 6.0, "unit": "µg/mL"}, {"measurement": "mean adalimumab serum concentration", "setting": "[5]; Week 2", "value": 8.8, "unit": "µg/mL"}, {"measurement": "CRP", "setting": "[6]", "value": "7 mg/L and < 5 mg/L (3×) and recorded/<5 mg/L"}, {"measurement": "ESR", "setting": "[6]", "value": "13 mm/hr and 12 mm/hr (2×) and 2 mm/hr"}]}]}
